Compound: COc1cccc2cc(-c3nc([C@H]4CC[C@H](C(=O)O)CC4)n4ncnc(N)c34)[nH]c12 [OSI-027] + Nc1ncn([C@H]2C[C@H](O)[C@@H](CO)O2)c(=O)n1 [Decitabine] (partner 2 µM)
Assay: relative viability (nuclei count vs DMSO), 5 days (fraction); higher = more cells survive
Conditions: first compound 0.03162 µM
Summary of the method: (§1)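 Dosing by pin tool came one day after lung cancer cell lines were seeded in 1536-well plates, using either one drug or a fixed anchor-drug dose plus five library-drug doses (not always all listed) in √10 steps. After 5 days, nuclei were counted on 4× images. Relative viability is treated-well nuclei count divided by vehicle-well nuclei count, and values are medians of duplicate plates.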

| Cell Line | relative viability |
| --- | --- |
| HCC-44 | 0.973 |
| BEN | 0.707 |
| LOU-NH91 | 0.825 |
| NCI-H661 | 0.522 |
| NCI-H1651 | 0.553 |
| PC-3 [JPC-3] | 0.841 |
| SW 1573 | 0.535 |
| LK-2 | 0.251 |
| NCI-H2405 | 0.74 |
| NCI-H1648 | 0.51 |
| NCI-H1993 | 0.538 |
| ChaGo-K-1 | 0.526 |
| NCI-H1355 | 0.437 |
| HCC-366 | 0.367 |
| NCI-H1915 | 0.257 |
| NCI-H838 | 0.483 |
| A-427 | 0.59 |
| NCI-H2009 | 0.354 |
| ABC-1 | 1.33 |
| NCI-H2170 | 0.491 |
| NCI-H522 | 0.724 |
| A549 | 0.256 |
| SW 900 | 0.402 |
| HCC-78 | 0.749 |

Same assay, conditions: first compound 0.1 µM

| Cell Line | relative viability |
| --- | --- |
| NCI-H2126 | 0.565 |
| EPLC-272H | 0.344 |
| NCI-H1755 | 0.702 |
| NCI-H2023 | 0.2 |
| NCI-H1650 | 0.471 |
| NCI-H1793 | 0.436 |
| NCI-H2342 | 0.68 |
| H3255 | 0.558 |
| NCI-H1975 | 0.398 |
| PC-14 | 0.239 |
| NCI-H1437 | 0.63 |
| HOP-62 | 0.252 |
| HCC-44 | 0.93 |
| BEN | 0.596 |
| LOU-NH91 | 0.73 |
| NCI-H661 | 0.491 |
| NCI-H1651 | 0.576 |
| PC-3 [JPC-3] | 0.768 |

| Cell Line | relative viability |
| --- | --- |
| SW 1573 | 0.438 |
| LK-2 | 0.231 |
| NCI-H2405 | 0.709 |
| NCI-H1993 | 0.569 |
| ChaGo-K-1 | 0.497 |
| NCI-H1355 | 0.356 |
| HCC-366 | 0.381 |
| NCI-H1915 | 0.262 |
| NCI-H838 | 0.403 |
| A-427 | 0.469 |
| NCI-H2009 | 0.339 |
| ABC-1 | 1.16 |
| NCI-H2170 | 0.463 |
| NCI-H522 | 0.626 |
| A549 | 0.272 |
| SW 900 | 0.42 |
| HCC-78 | 0.616 |

Same assay, conditions: first compound 0.3162 µM

| Cell Line | relative viability |
| --- | --- |
| NCI-H2126 | 0.523 |
| EPLC-272H | 0.298 |
| NCI-H1755 | 0.654 |
| NCI-H2023 | 0.207 |
| NCI-H1650 | 0.308 |
| NCI-H1793 | 0.329 |
| NCI-H2342 | 0.662 |
| H3255 | 0.513 |
| NCI-H1975 | 0.434 |
| PC-14 | 0.231 |
| NCI-H1437 | 0.493 |
| HOP-62 | 0.257 |
| HCC-44 | 0.945 |
| BEN | 0.513 |
| LOU-NH91 | 0.718 |
| NCI-H661 | 0.417 |
| NCI-H1651 | 0.561 |
| PC-3 [JPC-3] | 0.684 |

| Cell Line | relative viability |
| --- | --- |
| SW 1573 | 0.388 |
| LK-2 | 0.234 |
| NCI-H2405 | 0.634 |
| NCI-H1648 | 0.445 |
| NCI-H1993 | 0.432 |
| ChaGo-K-1 | 0.522 |
| NCI-H1355 | 0.376 |
| HCC-366 | 0.265 |
| NCI-H1915 | 0.26 |
| NCI-H838 | 0.378 |
| A-427 | 0.484 |
| NCI-H2009 | 0.36 |
| ABC-1 | 1.05 |
| NCI-H2170 | 0.421 |
| NCI-H522 | 0.629 |
| A549 | 0.319 |
| SW 900 | 0.48 |
| HCC-78 | 0.547 |

Same assay, conditions: first compound 1 µM

| Cell Line | relative viability |
| --- | --- |
| NCI-H2126 | 0.601 |
| EPLC-272H | 0.256 |
| NCI-H1755 | 0.503 |
| NCI-H2023 | 0.149 |
| NCI-H1650 | 0.314 |
| NCI-H1793 | 0.259 |
| NCI-H2342 | 0.603 |
| H3255 | 0.42 |
| NCI-H1975 | 0.4 |
| PC-14 | 0.217 |
| NCI-H1437 | 0.387 |
| HOP-62 | 0.214 |
| HCC-44 | 0.777 |
| BEN | 0.483 |
| LOU-NH91 | 0.613 |
| NCI-H661 | 0.327 |
| NCI-H1651 | 0.515 |
| PC-3 [JPC-3] | 0.628 |

| Cell Line | relative viability |
| --- | --- |
| SW 1573 | 0.284 |
| LK-2 | 0.142 |
| NCI-H2405 | 0.451 |
| NCI-H1648 | 0.45 |
| NCI-H1993 | 0.431 |
| ChaGo-K-1 | 0.45 |
| NCI-H1355 | 0.243 |
| HCC-366 | 0.228 |
| NCI-H1915 | 0.242 |
| NCI-H838 | 0.337 |
| A-427 | 0.37 |
| NCI-H2009 | 0.295 |
| ABC-1 | 0.762 |
| NCI-H2170 | 0.31 |
| NCI-H522 | 0.582 |
| A549 | 0.102 |
| SW 900 | 0.384 |
| HCC-78 | 0.457 |

Compound: Cc1nc(NC(=O)N2CCC[C@H]2C(N)=O)sc1-c1ccnc(C(C)(C)C(F)(F)F)c1 [Alpelisib] + CC(=O)Nc1cccc(-n2c(=O)n(C3CC3)c(=O)c3c(Nc4ccc(I)cc4F)n(C)c(=O)c(C)c32)c1 [Trametinib] (partner 0.02 µM)
Assay: as above
Conditions: first compound 0.04 µM
Summary of the method: as §1

| Cell Line | relative viability |
| --- | --- |
| NCI-H2126 | 0.545 |
| EPLC-272H | 0.268 |
| NCI-H1755 | 0.852 |
| NCI-H2023 | 0.532 |
| NCI-H1650 | 0.688 |
| NCI-H1793 | 0.424 |
| NCI-H2342 | 0.754 |
| H3255 | 0.649 |
| NCI-H1975 | 0.364 |
| PC-14 | 0.735 |
| NCI-H1437 | 0.434 |
| HOP-62 | 0.353 |
| HCC-44 | 1.05 |
| BEN | 0.909 |
| LOU-NH91 | 0.773 |
| NCI-H661 | 0.618 |
| NCI-H1651 | 0.752 |
| PC-3 [JPC-3] | 0.704 |
| SW 1573 | 0.562 |
| LK-2 | 0.633 |
| NCI-H2405 | 0.509 |
| NCI-H1648 | 0.489 |
| NCI-H1993 | 0.539 |
| ChaGo-K-1 | 0.725 |
